Data reported in ChEMBL document CHEMBL5291721, “A preclinical secondary pharmacology resource illuminates target-adverse drug reaction associations of marketed drugs” (Nat Commun, 2023).

Columns and labels:
[1] = target: Adenosine receptor A2a (Homo sapiens, UniProt P29274)
[2] = target: Neuronal acetylcholine receptor subunit alpha-4 (Homo sapiens, UniProt P43681)
[3] = target: Kappa-type opioid receptor (Homo sapiens, UniProt P41145)
[4] = target: T1, Alpha-2B adrenergic receptor (Homo sapiens, UniProt P18089)
T1 sequence (P18089 whole entry): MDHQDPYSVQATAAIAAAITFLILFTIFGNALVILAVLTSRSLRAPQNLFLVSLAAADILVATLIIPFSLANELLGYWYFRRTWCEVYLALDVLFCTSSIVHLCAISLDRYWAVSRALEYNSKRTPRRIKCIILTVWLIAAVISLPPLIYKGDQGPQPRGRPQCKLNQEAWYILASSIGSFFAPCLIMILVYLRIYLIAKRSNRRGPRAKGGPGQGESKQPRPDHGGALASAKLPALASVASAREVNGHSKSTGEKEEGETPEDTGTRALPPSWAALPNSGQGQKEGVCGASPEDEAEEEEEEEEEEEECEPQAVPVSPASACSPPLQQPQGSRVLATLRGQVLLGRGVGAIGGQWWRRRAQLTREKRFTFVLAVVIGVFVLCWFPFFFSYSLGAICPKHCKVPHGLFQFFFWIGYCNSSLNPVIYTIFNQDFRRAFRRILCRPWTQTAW

[5] = target: T2, Thromboxane A2 receptor (Homo sapiens, UniProt P21731)
T2 sequence (P21731 whole entry): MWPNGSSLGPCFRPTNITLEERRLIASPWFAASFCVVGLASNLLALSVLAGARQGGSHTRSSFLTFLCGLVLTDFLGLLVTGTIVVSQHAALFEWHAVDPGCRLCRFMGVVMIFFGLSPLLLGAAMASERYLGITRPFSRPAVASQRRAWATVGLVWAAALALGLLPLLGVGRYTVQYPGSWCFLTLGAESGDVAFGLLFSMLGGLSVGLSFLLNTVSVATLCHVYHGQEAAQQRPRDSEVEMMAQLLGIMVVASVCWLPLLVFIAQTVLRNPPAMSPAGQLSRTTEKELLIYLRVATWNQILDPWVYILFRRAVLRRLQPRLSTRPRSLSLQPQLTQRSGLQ

[6] = target: 5-hydroxytryptamine receptor 2A (Homo sapiens, UniProt P28223); type: functional, cell-based
Sequence of 5-hydroxytryptamine receptor 2A (P28223 whole entry): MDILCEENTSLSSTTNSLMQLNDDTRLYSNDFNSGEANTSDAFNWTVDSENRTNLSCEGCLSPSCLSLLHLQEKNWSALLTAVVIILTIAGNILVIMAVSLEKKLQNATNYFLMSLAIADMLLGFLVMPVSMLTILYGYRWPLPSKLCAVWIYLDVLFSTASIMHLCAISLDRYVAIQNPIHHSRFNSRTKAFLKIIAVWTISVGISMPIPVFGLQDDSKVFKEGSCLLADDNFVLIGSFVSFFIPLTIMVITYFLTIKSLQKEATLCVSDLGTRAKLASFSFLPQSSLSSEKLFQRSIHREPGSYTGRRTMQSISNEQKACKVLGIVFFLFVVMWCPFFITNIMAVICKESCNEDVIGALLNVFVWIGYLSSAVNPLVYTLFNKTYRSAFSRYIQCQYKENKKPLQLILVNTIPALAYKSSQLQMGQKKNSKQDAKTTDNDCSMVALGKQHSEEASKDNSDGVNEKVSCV

[7] = target: T3, Glucocorticoid receptor (Homo sapiens, UniProt P04150)
T3 sequence (P04150 whole entry): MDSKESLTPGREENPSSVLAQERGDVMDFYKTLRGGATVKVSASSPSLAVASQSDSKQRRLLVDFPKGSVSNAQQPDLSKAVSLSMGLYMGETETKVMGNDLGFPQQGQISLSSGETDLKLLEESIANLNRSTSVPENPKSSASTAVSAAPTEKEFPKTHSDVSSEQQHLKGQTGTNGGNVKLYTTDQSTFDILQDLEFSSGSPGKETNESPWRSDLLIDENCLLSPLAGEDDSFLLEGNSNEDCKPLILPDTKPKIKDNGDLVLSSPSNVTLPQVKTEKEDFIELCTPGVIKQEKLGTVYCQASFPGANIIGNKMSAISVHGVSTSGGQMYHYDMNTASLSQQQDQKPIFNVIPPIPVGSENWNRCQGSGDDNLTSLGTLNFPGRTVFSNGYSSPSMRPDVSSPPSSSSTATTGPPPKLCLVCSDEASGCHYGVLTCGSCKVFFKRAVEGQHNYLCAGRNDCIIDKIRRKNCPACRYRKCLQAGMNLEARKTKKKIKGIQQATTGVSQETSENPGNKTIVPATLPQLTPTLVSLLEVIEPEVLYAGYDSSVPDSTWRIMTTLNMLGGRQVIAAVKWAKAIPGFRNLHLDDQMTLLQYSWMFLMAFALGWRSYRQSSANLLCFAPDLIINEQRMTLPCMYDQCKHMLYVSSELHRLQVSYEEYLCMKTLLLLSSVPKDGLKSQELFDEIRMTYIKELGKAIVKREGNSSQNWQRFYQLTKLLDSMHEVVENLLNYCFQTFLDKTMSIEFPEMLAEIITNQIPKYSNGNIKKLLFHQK

[8] = target: T4, 5-hydroxytryptamine receptor 1A (Homo sapiens, UniProt P08908); type: functional, cell-based
T4 sequence (P08908 whole entry): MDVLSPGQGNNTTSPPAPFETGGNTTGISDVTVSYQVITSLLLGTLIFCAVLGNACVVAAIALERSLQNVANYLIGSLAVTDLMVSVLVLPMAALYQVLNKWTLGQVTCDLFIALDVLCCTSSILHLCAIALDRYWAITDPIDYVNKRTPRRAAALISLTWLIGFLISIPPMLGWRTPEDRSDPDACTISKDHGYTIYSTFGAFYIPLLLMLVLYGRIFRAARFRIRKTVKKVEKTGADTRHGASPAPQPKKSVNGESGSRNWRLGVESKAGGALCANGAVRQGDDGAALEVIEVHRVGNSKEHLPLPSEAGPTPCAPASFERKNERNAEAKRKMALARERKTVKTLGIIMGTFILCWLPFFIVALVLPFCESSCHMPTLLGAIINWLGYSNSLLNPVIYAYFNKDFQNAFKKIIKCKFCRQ

[9] = target: Beta-1 adrenergic receptor (Homo sapiens, UniProt P08588); type: functional
Sequence of Beta-1 adrenergic receptor (P08588 whole entry): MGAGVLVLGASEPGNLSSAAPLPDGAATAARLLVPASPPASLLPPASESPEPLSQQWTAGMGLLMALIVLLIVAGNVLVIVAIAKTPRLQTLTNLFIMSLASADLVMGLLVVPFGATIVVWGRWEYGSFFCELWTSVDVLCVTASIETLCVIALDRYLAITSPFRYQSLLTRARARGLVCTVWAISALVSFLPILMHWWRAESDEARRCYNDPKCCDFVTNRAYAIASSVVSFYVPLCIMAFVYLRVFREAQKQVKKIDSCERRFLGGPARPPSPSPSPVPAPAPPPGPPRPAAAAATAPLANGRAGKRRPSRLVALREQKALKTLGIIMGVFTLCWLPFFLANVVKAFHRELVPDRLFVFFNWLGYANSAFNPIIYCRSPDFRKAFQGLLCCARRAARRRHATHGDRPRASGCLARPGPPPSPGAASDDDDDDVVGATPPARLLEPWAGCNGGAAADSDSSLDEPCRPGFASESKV

[10] = target: T5, Gastrin/cholecystokinin type B receptor (Homo sapiens, UniProt P32239)
T5 sequence (P32239 whole entry): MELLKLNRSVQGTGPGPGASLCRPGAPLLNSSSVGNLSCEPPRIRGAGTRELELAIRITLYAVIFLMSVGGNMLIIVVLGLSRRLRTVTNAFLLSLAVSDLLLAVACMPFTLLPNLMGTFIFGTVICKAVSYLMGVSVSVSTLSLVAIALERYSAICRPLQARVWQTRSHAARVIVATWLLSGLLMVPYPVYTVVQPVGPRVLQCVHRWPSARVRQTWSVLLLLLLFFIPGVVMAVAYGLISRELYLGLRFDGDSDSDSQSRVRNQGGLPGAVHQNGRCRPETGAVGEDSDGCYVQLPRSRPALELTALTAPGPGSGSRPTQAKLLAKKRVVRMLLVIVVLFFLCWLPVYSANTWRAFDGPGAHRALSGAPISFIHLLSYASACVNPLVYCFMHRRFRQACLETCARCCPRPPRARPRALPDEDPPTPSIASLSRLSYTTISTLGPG
Further: assay procedure not described here.

Sequence of Adenosine receptor A2a (P29274 whole entry): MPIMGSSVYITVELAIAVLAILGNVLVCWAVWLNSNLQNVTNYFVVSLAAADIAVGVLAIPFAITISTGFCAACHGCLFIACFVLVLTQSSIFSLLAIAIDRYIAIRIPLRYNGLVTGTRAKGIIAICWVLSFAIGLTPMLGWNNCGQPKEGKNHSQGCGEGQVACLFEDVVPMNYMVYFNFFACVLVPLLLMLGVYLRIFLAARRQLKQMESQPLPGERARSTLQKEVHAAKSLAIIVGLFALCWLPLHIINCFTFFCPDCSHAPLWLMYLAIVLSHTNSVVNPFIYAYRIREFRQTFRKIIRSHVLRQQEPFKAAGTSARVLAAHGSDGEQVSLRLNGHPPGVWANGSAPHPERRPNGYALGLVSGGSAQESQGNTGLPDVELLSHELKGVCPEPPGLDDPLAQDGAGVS
Sequence of Neuronal acetylcholine receptor subunit alpha-4 (P43681 whole entry): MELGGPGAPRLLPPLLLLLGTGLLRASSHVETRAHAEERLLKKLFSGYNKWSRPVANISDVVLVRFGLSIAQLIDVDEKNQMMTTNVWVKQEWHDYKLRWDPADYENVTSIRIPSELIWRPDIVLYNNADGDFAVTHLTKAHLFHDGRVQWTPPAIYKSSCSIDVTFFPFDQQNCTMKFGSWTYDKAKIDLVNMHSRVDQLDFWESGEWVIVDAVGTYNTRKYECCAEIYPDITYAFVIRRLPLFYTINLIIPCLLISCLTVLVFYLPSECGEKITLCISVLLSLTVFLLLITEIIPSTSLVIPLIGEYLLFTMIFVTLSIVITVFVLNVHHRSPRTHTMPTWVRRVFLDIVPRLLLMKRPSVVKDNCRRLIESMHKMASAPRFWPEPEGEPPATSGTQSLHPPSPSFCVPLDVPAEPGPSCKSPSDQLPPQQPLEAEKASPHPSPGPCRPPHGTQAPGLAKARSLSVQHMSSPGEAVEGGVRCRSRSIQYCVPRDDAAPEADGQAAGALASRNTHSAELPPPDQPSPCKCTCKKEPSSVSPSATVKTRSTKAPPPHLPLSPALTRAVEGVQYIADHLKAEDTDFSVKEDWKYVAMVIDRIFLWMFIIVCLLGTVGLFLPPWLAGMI
Sequence of Kappa-type opioid receptor (P41145 whole entry): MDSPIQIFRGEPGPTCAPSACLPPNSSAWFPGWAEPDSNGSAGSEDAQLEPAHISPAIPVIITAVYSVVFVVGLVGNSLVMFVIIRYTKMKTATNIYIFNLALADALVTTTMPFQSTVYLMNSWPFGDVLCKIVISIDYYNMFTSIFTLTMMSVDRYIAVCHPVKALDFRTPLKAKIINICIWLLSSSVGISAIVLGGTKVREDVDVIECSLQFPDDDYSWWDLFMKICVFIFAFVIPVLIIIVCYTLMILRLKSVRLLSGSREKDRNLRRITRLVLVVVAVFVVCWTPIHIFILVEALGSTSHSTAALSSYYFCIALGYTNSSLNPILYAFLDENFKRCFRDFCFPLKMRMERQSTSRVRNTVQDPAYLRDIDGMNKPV

Row | Structure (SMILES) | AC50 [1] [µM] | AC50 [2] [µM] | AC50 [3] [µM] | AC50 [4] [µM] | AC50 [5] [µM] | AC50 [6] [µM] | AC50 [7] [µM] | AC50 [8] [µM] | AC50 [9] [µM] | AC50 [10] [µM]
1 | CN1CCC(=C2c3ccccc3CCc3sccc32)CC1 [PIZOTYLINE] | > 30 | > 10 | 1.57 | 0.51 | > 30 | 0.0379 | > 30 | 3.56 | > 10 | > 30
2 | Cc1ccc(-n2nccn2)c(C(=O)N2CCN(c3nc4cc(Cl)ccc4o3)CC[C@H]2C)c1 [SUVOREXANT] | > 30 | > 30 | > 30 | 26 | > 10 | > 30 | > 30 | > 30 | > 30 | > 30
3 | COc1cc2c(N)nc(N3CCN(C(=O)OCC(C)(C)O)CC3)nc2c(OC)c1OC [TRIMAZOSIN] | > 30 | > 30 | > 30 | > 30 | > 30 | > 30 | > 30 | > 30 | > 30 | > 30
4 | C=CCN1CCCC1CNC(=O)c1cc(S(N)(=O)=O)cc(OC)c1OC (stereo not given) [VERALIPRIDE] | > 30 | > 30 | > 30 | 3.2 | > 30 | 24 | > 30 | > 30 | > 30 | > 30
